Laboratory results: patent US9050346B2, “Bromodomain inhibitors” (AbbVie Inc., priority 2013, dated 2015)
Marks after values point to notes of the source that are not given here.

Key:
BRD4 (BDII_E352-M457) = biological target: T1, BRD4 (BDII_E352-M457) (Homo sapiens, UniProt O60885); experiment: TR-FRET bromodomain binding assay, BRD4 second bromodomain
T1 construct: made in house
Method in brief: (§1)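 His-tagged BRD4 BD1 (K57-E168) or BD2 (8 nM) with Eu-anti-His antibody and Alexa647-labeled BET-inhibitor probe (100 nM for BDI, 30 nM for BDII), pH 6.0 phosphate buffer, 2% DMSO, 1 h at room temperature. TR-FRET (Ex 340, Em 495/520); IC50 by 4-parameter fit, converted to Ki using probe Kd and concentration.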

[1] = tested on: breast cancer cell line MX-1; experiment: MX-1 cell line proliferation assay (3-day, Cell Titer Glo); format: cell-based; conditions: Homo sapiens, MX1, MX-1 cells, 72 h, top concentration 3 μM, read-out: Cellular proliferation: EC50
Method in brief: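 MX-1 cells, 5000/well in RPMI 1640 with 10% FBS, adhered overnight, then treated 3 days with compound at final 3 to 0.0001 μM (3-fold steps). Cell Titer Glo luminescence normalized to DMSO-treated cells; EC50 from sigmoidal fit.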

[2] = tested on: LPS induced IL-6 production; experiment: LPS (lipopolysaccharide) induced IL-6 production mouse assay; format: in vivo; conditions: 3 mg/kg oral, 1 h before LPS 2.5 mg/kg i.p.; serum IL-6 2 h after LPS; SCID female mice; all p<0.05
Method: Compounds of the Examples listed in Table 2 were assayed for their ability to inhibit LPS (lipopolysaccharide) induced IL-6 (Interleukin-6) production in mice. Fox Chase SCID® female mice (Charles Rivers Labs, 5 per group) received an intraperitoneal challenge of lipopolysaccharide (2.5 mg/kg, L2630 E. coli 0111:B4) one hour after oral administration of compounds. Mice were euthanized 2 hours after lipopolysaccharide injection, blood was removed by cardiac puncture, and then the serum harvested from the blood samples was frozen at −80° C. On the day of the assay the serum samples were brought to room temperature and then diluted 1:20 in phosphate-buffered saline containing 2% bovine serum albumin. Interleukin-6 measurements were performed using a cytokine assay from Meso Scale Discovery (Gaithersburg, Md.) for mouse serum analysis according to the manufacturer's protocol and read on a SECTOR Imager 6000 (Meso Scale Discovery, Gaithersburg, Md.) instrument. Statistical analysis was performed using Prism software (version 5.0) incorporating Dunnett's one way ANOVA. The IL-6 mean and standard deviation of the group of vehicle treated animals were compared with the IL-6 mean and standard deviation of the group treated with drug. A p value<0.05 means that there is less than a 5% probability that the mean values in the two groups are equal.
Xenograft Tumor Growth Inhibition Assay

BRD4 (BDI_K57-E168) = biological target: T2, BRD4 (BDI_K57-E168) (Homo sapiens, UniProt O60885); experiment: TR-FRET bromodomain binding assay, BRD4 first bromodomain; conditions: His-tagged BD1, 100 nM Alexa647 probe; Ki calculated from IC50; dilution protocol A-G
T2 construct: BD1: amino acids K57-E168; made in house
Method in brief: as §1

[3] = tested on: OPM-2 human multiple myeloma xenograft tumors; experiment: OPM-2 xenograft tumor growth inhibition assay; format: in vivo, mice; conditions: QDx21; for % TGI: SCID-beige mice; for % TGD (tumor growth delay): endpoint 1000 mm^3
Method: The effect of compounds of the examples to inhibit the growth of OPM-2 xenograft tumors implanted in mice was evaluated. A suspension of cancer cells (5×10^6 per 0.1 mL) prepared in RPMI culture medium (Invitrogen, Carlsbad, Calif.) was diluted 1:1 with a solution of Matrigel™ (BD Biosciences, Franklin Lakes, N.J.) and inoculated subcutaneously into the right hind flank of female SCID-beige (Charles River Labs) mice. Randomization into treatment and vehicle control groups (10/group) occurred when the mean tumor volume reached approximately 250 mm^3. Compounds were formulated in 2.5% DMSO, 10% EtOH, 27.5% PEG 400, 60% Phosol 53 MCT. Administration of compound or vehicle was initiated on the day following randomization and continued for 21 days. Tumors were measured twice a week throughout the treatment period using a pair of calipers and tumor volumes were calculated according to the formula V=L×W^2/2 (V: volume, mm^3; L: length, mm. W: width, mm) Tumor growth inhibition was calculated based on the mean tumor volume measured on the first day that the mean volume of the vehicle group exceeded 2000 mm^3 according to the formula % TGI=100-mean tumor volume of treatment group/mean tumor volume of control group x 100.

Ki (BRD4 (BDII_E352-M457)) | EC50 [1] | Ki (BRD4 (BDI_K57-E168)) | Compound | % inhibition of LPS induced IL-6 production at 3 mg/kg [2] | % removed from study (morbidity or weight loss in excess of 20%) ([3]; 45 mg/kg PO) | % TGI ([3]; 45 mg/kg PO) | % TGD (tumor growth delay) ([3]; 45 mg/kg PO) | % removed from study (morbidity or weight loss in excess of 20%) ([3]; 150 mg/kg PO) | % TGI ([3]; 150 mg/kg PO) | % TGD (tumor growth delay) ([3]; 150 mg/kg PO)
46.7 nM | 114 nM | 10.6 nM | COCCNC(=O)c1cc2c(-c3ccccc3Oc3ccccc3)[nH]c(C)c2c(=O)[nH]1 [Example 29, N-(2-methoxyethyl)-3-methyl-4-oxo-1-(2-phenoxyphenyl)-4,5-dihydro-2H-pyrrolo[3,4-c]pyridine-6-carboxamide] | 40% | – | – | – | – | – | –
32.4 nM | 91.9 nM | 17.2 nM | Cc1[nH]c(-c2cc(N)ccc2Oc2ccccc2)c2c1C(=O)NCC2 [Example 94, 1-(5-amino-2-phenoxyphenyl)-3-methyl-2,5,6,7-tetrahydro-4H-pyrrolo[3,4-c]pyridin-4-one] | 27% | – | – | – | – | – | –
25.4 nM | 150 nM | 15.9 nM | CCCNC(=O)c1cc2c(-c3cc(N)ccc3Oc3ccc(F)cc3F)[nH]c(C)c2c(=O)[nH]1 [Example 43, 1-[5-amino-2-(2,4-difluorophenoxy)phenyl]-3-methyl-4-oxo-N-propyl-4,5-dihydro-2H-pyrrolo[3,4-c]pyridine-6-carboxamide] | 39% | – | – | – | – | – | –
148 nM | 721 nM | 34.9 nM | Cc1[nH]c(-c2cc(S(C)(=O)=O)ccc2Oc2ccc(F)cc2F)c2c1C(=O)NCC2 [Example 98, 1-[2-(2,4-difluorophenoxy)-5-(methylsulfonyl)phenyl]-3-methyl-2,5,6,7-tetrahydro-4H-pyrrolo[3,4-c]pyridin-4-one] | – | 0% | 45** % | 53** % | 20% | 68*** % | 123** %
357 nM | 167 nM | 36.7 nM | Cc1[nH]c(-c2cc(C#N)ccc2Oc2ccc(F)cc2F)c2cn[nH]c(=O)c12 [Example 82, 4-(2,4-difluorophenoxy)-3-(7-methyl-1-oxo-2,6-dihydro-1H-pyrrolo[3,4-d]pyridazin-5-yl)benzonitrile] | 44% | – | – | – | – | – | –
21.5 nM | 24 nM | 1.47 nM | COC(=O)c1cc2c(-c3cc(N)ccc3Oc3ccccc3)[nH]c(C)c2c(=O)[nH]1 [Example 2, methyl 1-(5-amino-2-phenoxyphenyl)-3-methyl-4-oxo-4,5-dihydro-2H-pyrrolo[3,4-c]pyridine-6-carboxylate] | 25% | – | – | – | – | – | –
160 nM | 355 nM | 77 nM | CNC(=O)c1cc2c(-c3cc(C(F)(F)F)ccc3Oc3ccc(F)cc3F)[nH]c(C)c2c(=O)[nH]1 [Example 34, 1-[2-(2,4-difluorophenoxy)-5-(trifluoromethyl)phenyl]-N,3-dimethyl-4-oxo-4,5-dihydro-2H-pyrrolo[3,4-c]pyridine-6-carboxamide] | – | – | – | – | – | – | –
116 nM | 111 nM | 13 nM | Cc1[nH]c(-c2ccccc2Oc2ccccc2)c2cc(-c3nc(-c4cccnc4)no3)[nH]c(=O)c12 [Example 60, 3-methyl-1-(2-phenoxyphenyl)-6-(3-(pyridin-3-yl)-1,2,4-oxadiazol-5-yl)-2H-pyrrolo[3,4-c]pyridin-4(5H)-one] | – | – | – | – | – | – | –
70.2 nM | 138 nM | 3.43 nM | Cc1[nH]c(-c2ccccc2Oc2ccccc2)c2cc(C(=O)NC3CN(C)C3)[nH]c(=O)c12 [Example 49, 3-methyl-N-(1-methylazetidin-3-yl)-4-oxo-1-(2-phenoxyphenyl)-4,5-dihydro-2H-pyrrolo[3,4-c]pyridine-6-carboxamide] | – | – | – | – | – | – | –
9.47 nM | 51.8 nM | 3.66 nM | CCS(=O)(=O)Nc1ccc(Oc2ccccc2)c(-c2[nH]c(C)c3c(=O)[nH]ncc23)c1 [Example 75, N-[3-(7-methyl-1-oxo-2,6-dihydro-1H-pyrrolo[3,4-d]pyridazin-5-yl)-4-phenoxyphenyl]ethanesulfonamide] | – | – | – | – | – | – | –
170 nM | 616 nM | 32.7 nM | Cc1[nH]c(-c2ccccc2Oc2ccccc2)c2cc(C(=O)N3CCN(C)CC3)[nH]c(=O)c12 [Example 16, 3-methyl-6-(4-methylpiperazine-1-carbonyl)-1-(2-phenoxyphenyl)-2H-pyrrolo[3,4-c]pyridin-4(5H)-one] | – | – | – | – | – | – | –
18.6 nM | 78 nM | 1.88 nM | Cc1[nH]c(-c2cc(N)ccc2Oc2ccccc2)c2cn[nH]c(=O)c12 [Example 74, 5-(5-amino-2-phenoxyphenyl)-7-methyl-2,6-dihydro-1H-pyrrolo[3,4-d]pyridazin-1-one] | – | – | – | – | – | – | –
198 nM | 239 nM | 122 nM | Cc1[nH]c(-c2cc(CO)ccc2Oc2ccc(F)cc2F)c2c1C(=O)NCC2 [Example 103, 1-[2-(2,4-difluorophenoxy)-5-(hydroxymethyl)phenyl]-3-methyl-2,5,6,7-tetrahydro-4H-pyrrolo[3,4-c]pyridin-4-one] | – | – | – | – | – | – | –
254 nM | 394 nM | 22.7 nM | Cc1[nH]c(-c2cc(S(C)(=O)=O)ccc2Oc2ccc(F)cc2F)c2cn[nH]c(=O)c12 [Example 81, 5-[2-(2,4-difluorophenoxy)-5-(methylsulfonyl)phenyl]-7-methyl-2,6-dihydro-1H-pyrrolo[3,4-d]pyridazin-1-one] | – | – | – | – | – | – | –
424 nM | 233 nM | 66.7 nM | COCc1cc2c(-c3ccccc3Oc3ccccc3)[nH]c(C)c2c(=O)[nH]1 [Example 44, 6-(methoxymethyl)-3-methyl-1-(2-phenoxyphenyl)-2,5-dihydro-4H-pyrrolo[3,4-c]pyridin-4-one] | – | – | – | – | – | – | –
627 nM | 1720 nM | 126 nM | Cc1cc(-c2ccc(-c3[nH]c(C)c4c(=O)[nH]ncc34)cc2)[nH]n1 [Example 83, 7-methyl-5-[4-(3-methyl-1H-pyrazol-5-yl)phenyl]-2,6-dihydro-1H-pyrrolo[3,4-d]pyridazin-1-one] | – | – | – | – | – | – | –
112 nM | 288 nM | 15.6 nM | CCS(=O)(=O)c1ccc(NCC2CC2)c(-c2[nH]c(C)c3c(=O)[nH]ncc23)c1 [Example 84, 5-{2-[(cyclopropylmethyl)amino]-5-(ethylsulfonyl)phenyl}-7-methyl-2,6-dihydro-1H-pyrrolo[3,4-d]pyridazin-1-one] | – | – | – | – | – | – | –
